The source of these data is patent US20030166932A1 (priority 2002, published 2003).

Test [1] has as its target T1, RXRα (Homo sapiens, UniProt P19793).
T1 sequence (P19793 1-462): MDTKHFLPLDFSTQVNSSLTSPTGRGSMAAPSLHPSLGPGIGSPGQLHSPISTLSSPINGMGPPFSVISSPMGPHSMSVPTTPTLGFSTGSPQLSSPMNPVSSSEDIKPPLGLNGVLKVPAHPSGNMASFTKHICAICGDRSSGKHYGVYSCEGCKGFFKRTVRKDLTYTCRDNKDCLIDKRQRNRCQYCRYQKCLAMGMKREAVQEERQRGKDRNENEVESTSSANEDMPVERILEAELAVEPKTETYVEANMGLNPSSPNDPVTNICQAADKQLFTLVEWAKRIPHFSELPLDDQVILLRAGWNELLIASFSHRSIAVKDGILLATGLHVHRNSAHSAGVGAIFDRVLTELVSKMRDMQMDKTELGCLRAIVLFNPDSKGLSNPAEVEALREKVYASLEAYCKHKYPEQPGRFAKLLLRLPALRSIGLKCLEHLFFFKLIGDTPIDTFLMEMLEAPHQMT
The experiment in a line: ligand binding assay.
From the text: (§2) The results obtained in this assay are expressed in EC50 numbers, as they are also in the chimeric receptor transactivation assay. The results of ligand binding assay are expressed in Kd numbers.
(§3) Particularly, the transactivation data pertaining to RAR receptors were obtained in the chimeric assay, and the data pertaining to transactivation of RXR receptors were obtained in the holoreceptor transactivation assay.

The target of test [2] is T2, RARα (Homo sapiens, UniProt P10276).
T2 sequence (P10276 1-462): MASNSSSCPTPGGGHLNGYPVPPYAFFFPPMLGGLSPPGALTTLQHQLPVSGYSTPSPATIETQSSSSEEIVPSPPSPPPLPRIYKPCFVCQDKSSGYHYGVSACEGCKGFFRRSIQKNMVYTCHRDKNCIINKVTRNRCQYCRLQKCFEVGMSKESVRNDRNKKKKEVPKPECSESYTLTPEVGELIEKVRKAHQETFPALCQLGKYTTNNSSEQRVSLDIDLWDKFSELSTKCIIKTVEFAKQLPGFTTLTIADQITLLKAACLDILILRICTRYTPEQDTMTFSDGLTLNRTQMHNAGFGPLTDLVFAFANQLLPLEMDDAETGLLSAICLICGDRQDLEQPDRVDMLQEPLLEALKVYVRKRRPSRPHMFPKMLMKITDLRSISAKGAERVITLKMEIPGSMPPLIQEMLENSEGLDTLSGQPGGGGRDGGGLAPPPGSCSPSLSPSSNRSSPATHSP
Briefly: chimeric receptor transactivation assay. In kind it is cell-based. From the text: (§1) The specification of U.S. Pat. No. 5,455,265 is hereby expressly incorporated by reference.

The target in test [3] is T1, RXRα. The experiment in a line: holoreceptor transactivation assay. The following applies: for Emax: read-out: % efficacy, RXR Trans. α.
From the text: as §2, §3
Test [4] addresses T3, RARγ (Homo sapiens, UniProt P13631).
T3 sequence (P13631 1-454): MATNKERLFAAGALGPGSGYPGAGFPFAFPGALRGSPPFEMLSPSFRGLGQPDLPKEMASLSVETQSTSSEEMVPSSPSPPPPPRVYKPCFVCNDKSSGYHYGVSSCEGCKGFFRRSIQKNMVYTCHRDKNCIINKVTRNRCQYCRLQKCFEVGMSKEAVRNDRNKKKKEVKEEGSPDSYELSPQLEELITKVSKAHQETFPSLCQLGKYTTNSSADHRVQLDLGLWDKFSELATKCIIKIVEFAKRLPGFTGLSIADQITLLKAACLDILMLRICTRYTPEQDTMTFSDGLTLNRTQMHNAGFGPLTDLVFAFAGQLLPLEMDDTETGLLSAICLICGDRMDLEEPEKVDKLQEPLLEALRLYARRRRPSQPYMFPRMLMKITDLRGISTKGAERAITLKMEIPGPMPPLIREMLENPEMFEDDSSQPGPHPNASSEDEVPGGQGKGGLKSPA
The experiment in a line: ligand binding assay. The following applies: read-out: RAR Bind. Ki (nM) Y.
From the text: as §2, §3

Test [5] deals with T4, RXRβ (UniProt P28704).
T4 sequence (P28704 1-520): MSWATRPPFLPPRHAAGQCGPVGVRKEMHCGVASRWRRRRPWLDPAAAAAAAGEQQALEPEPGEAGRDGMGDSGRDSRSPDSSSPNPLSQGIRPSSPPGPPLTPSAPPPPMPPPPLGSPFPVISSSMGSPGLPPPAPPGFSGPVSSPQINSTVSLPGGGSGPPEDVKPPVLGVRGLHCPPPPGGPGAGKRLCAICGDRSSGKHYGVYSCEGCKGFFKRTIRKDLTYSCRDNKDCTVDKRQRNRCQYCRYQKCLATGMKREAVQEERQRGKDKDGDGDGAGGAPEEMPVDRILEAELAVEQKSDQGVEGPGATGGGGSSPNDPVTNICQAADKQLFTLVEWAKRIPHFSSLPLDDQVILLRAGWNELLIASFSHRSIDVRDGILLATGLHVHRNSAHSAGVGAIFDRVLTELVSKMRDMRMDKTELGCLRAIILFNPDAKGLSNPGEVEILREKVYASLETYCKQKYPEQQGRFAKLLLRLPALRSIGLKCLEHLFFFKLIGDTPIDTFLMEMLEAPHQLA
The experiment in a line: ligand binding assay. The following applies: read-out: RXR Bind Ki (nM) β.
From the text: as §2, §3

Test [6] concerns the target T4, RXRβ. The experiment in a line: holoreceptor transactivation assay. In kind it is cell-based. The note with it: for EC50: NA = Not Active, read-out: RXR Trans. EC50 (nM) β; for % efficacy, RXR Trans. β: relative to 10^−6 M AGN 194204.
From the text: as §2, §3
Test [7] has as its target T5, RXRγ (UniProt P28705).
T5 sequence (P28705 1-463): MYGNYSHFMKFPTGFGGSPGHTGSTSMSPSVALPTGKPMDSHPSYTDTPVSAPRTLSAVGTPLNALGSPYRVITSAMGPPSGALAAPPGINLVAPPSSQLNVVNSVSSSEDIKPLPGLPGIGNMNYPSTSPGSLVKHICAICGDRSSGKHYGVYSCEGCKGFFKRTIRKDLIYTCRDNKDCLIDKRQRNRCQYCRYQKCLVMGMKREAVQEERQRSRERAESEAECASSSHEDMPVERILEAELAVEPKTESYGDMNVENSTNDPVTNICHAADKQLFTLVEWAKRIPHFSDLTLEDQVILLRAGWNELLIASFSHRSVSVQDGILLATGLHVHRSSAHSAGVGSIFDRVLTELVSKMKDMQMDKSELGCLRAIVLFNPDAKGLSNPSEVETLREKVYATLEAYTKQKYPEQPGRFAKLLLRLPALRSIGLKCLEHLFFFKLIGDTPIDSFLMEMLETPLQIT
Briefly: holoreceptor transactivation assay. The test is classed as cell-based. The following applies: for EC50: NA = Not Active, read-out: RXR Trans. EC50 (nM) Y; for % efficacy, RXR Trans. Y: relative to 10^−6 M AGN 194204.
From the text: as §2, §3

For test [8], the target named is T6, RARβ (Homo sapiens, UniProt P10826).
T6 sequence (P10826 1-455): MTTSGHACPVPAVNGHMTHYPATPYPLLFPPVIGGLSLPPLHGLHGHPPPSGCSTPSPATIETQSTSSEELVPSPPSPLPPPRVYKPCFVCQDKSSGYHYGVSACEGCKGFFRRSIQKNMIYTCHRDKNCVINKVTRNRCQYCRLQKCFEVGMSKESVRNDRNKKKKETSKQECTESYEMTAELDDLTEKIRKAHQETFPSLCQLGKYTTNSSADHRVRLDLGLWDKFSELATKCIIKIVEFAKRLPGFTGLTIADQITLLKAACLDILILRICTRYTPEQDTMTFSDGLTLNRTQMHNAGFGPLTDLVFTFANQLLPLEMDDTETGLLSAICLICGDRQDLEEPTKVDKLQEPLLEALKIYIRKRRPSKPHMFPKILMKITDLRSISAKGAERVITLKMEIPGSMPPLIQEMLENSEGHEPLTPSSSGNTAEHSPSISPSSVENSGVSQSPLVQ
The experiment in a line: ligand binding assay. The following applies: read-out: RAR Bind. Ki (nM) β.
From the text: as §2, §3

For test [9], the target named is T5, RXRγ. The experiment in a line: ligand binding assay. The following applies: read-out: RXR Bind Ki (nM) Y.
Test [10] deals with T7, RARβ (Homo sapiens, UniProt P10826).
T7 sequence (P10826 154-455): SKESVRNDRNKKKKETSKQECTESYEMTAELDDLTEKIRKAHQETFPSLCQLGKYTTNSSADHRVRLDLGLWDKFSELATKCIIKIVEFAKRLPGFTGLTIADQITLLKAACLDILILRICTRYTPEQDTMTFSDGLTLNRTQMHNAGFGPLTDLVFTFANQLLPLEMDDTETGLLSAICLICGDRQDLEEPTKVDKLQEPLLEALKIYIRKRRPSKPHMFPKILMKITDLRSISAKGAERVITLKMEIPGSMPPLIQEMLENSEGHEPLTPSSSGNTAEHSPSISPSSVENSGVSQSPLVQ
Briefly: cell-based. The test is classed as cell-based. The following applies: for EC50: NA = Not Active, read-out: RAR Trans. EC50 (nM) β; for Emax: relative to 10^−6 M ATRA, read-out: % efficacy, RAR Trans. β.
From the text: as §1

Test [11] addresses T8, RARγ (Homo sapiens, UniProt P13631).
T8 sequence (P13631 156-454): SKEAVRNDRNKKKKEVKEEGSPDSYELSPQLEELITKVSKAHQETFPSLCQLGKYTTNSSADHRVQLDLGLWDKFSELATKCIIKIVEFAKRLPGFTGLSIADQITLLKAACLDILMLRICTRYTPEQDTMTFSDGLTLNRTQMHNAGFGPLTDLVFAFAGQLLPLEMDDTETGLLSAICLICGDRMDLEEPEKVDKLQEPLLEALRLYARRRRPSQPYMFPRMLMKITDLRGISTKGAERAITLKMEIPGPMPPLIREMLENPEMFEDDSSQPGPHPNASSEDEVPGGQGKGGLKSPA
The test is classed as cell-based.
From the text: as §1

For the compound `CCN(c1ccc(C(=O)O)cc1)c1cc2c(cc1C)C(C)(C)CC=C2C(C)(C)C` [Compound 26, 4-[Ethyl(8-t-butyl-3,5,5-trimethyl-5,6-dihydronaphthalen-2-yl)amino]benzoic acid], the inhibition constant Ki was 7 nM in test [1], 4000 nM in test [4], 30 nM in test [5] and 1300 nM in [8]. Also, the EC50 in [2] (NA = Not Active, read-out: RAR Trans. EC50 (nM) α) turned out to be 0.5 nM; in test [3] it was 0.3 nM; in test [6], 4 nM; in test [7] it was 0.5 nM. In addition, the Emax in test [2] (relative to 10^−6 M ATRA, read-out: % efficacy, RAR Trans. α) was found to be 10%; in test [3], 85%. Also, the “% efficacy, RXR Trans. β” value in test [6] is reported as “(84) %”. Also, in [7], the “% efficacy, RXR Trans. Y” value was “(90) %”.
In the case of `C=CCN(c1ccc(C(=O)O)cc1)c1ccc2c(c1)C(C(C)(C)C)=CCC2(C)C` [Compound 90, 4-[(8-t-Butyl-5,5-dimethyl-5,6-dihydronaphthalen-2-yl)(prop-2-en-yl)lamino]-benzoic acid], the Ki in [1] was 39 nM; in test [4], over 10000 nM; in test [5], 84 nM; in test [9], 68 nM; in [8], over 10000 nM. In addition, the EC50 in test [3] was 12 nM; in [10], over 1000 nM; in test [6], 76 nM; in [7] it was 12 nM; in test [11] (NA = Not Active, read-out: RAR Trans. EC50 (nM) Y) it was over 1000 nM. Moreover, the Emax was determined as 112% in test [3] and 15% in test [10]. Further, the “% efficacy, RXR Trans. β” value in test [6] is “(110) %”. Further, the “% efficacy, RXR Trans. Y” value in test [7] is “(102) %”. In addition, in [11] (relative to 10^−6 M ATRA), the “% efficacy, RAR Trans. Y” value was “(5) %”.
`CCCN(c1ccc(C(=O)O)cc1)c1cc2c(cc1OCc1ccccc1)C(C)(C)CC=C2C(C)C` [Compound 157]: the inhibition constant Ki in test [1] was determined as 8 nM; in [4], 13000 nM; in test [5], 46 nM; in test [9], 99 nM; in test [8], 1200 nM. In addition, in test [10], the EC50 is over 1000 nM. Further, the Emax in test [10] was 32%.
For `CCN(c1ccc2c(c1)C(C(C)C)=CCC2(C)C)c1ccc(C(=O)O)cn1` [Compound 172, 6-[Ethyl-(8-isopropyl5,5-dimethyl-5,6-dihydro-naphthalen-2-yl)-amino]-nicotinic acid], the Ki is 0.7 nM in test [1]; over 10000 nM in test [4]; 4 nM in test [5]; 6 nM in test [9]; 6000 nM in [8]. For the same compound, the concentration for a half-maximal effect (EC50) amounted to 2 nM in test [3], 13 nM in test [6] and 2 nM in test [7]. In test [3], the Emax was found to be 109%. Also, in [6], the “% efficacy, RXR Trans. β” value was “(112) %”. The “% efficacy, RXR Trans. Y” value in [7] is “(118) %”.

As a reminder, the Ki is the dissociation constant of the complex between target and ligand, obtained from inhibition or displacement. Broadly, the EC50 is the midpoint of the concentration-response curve.
